Source: PubChem BioAssay AID248 (DTP/NCI, 2004)
Where “and” joins values, the source holds several entries; their conditions need not be identical. Equal values may be shown once. Toxic doses and inconclusive results are not listed. Cut-off read from the data, not from the text of the source: active = T/C of 150% or more; inactive = T/C below 125%.

Test system: L1210 leukemia ip in BDF1 mice, survival T/C
Assay: NCI In Vivo Anticancer Drug Screen. Data for tumor model L1210 Leukemia (intraperitoneal) in B6D2F1 (BDF1) mice
Details: endpoint: mean survival time, higher = longer survival
Summary of the method: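 Tumor cells were implanted, animals were treated, and survival was followed. The result divides the treated measurement by the vehicle-control measurement.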

[1] = dose: 100.0 mg/kg/injection, schedule: Q01DX009 (ip), vehicle: saline
[2] = dose: 100.0 mg/kg/injection, schedule: Q04DX003 (ip), vehicle: saline
[3] = dose: 200.0 mg/kg/injection, schedule: Q04DX003 (ip), vehicle: saline
[4] = dose: 400.0 mg/kg/injection, schedule: Q04DX003 (ip), vehicle: saline
[5] = dose: 100.0 mg/kg/injection, schedule: Q01DX001 (ip), vehicle: other
[6] = dose: 100.0 mg/kg/injection, schedule: Q01DX009 (ip), vehicle: Klucel (hydroxypropylcellulose) (HPC)
[7] = dose: 100.0 mg/kg/injection, schedule: Q04DX003 (ip), vehicle: Klucel (hydroxypropylcellulose) (HPC)
[8] = dose: 200.0 mg/kg/injection, schedule: Q04DX003 (ip), vehicle: Klucel (hydroxypropylcellulose) (HPC)
[9] = dose: 400.0 mg/kg/injection, schedule: Q04DX003 (ip), vehicle: Klucel (hydroxypropylcellulose) (HPC)
[10] = dose: 100.0 mg/kg/injection, schedule: Q01DX001 (ip), vehicle: saline
[11] = dose: 200.0 mg/kg/injection, schedule: Q01DX001 (ip), vehicle: saline
[12] = dose: 400.0 mg/kg/injection, schedule: Q01DX001 (ip), vehicle: saline
[13] = dose: 200.0 mg/kg/injection, schedule: Q01DX009 (ip), vehicle: Klucel (hydroxypropylcellulose) (HPC)
[14] = dose: 400.0 mg/kg/injection, schedule: Q01DX009 (ip), vehicle: Klucel (hydroxypropylcellulose) (HPC)
[15] = dose: 100.0 mg/kg/injection, schedule: Q04DX002 (ip), vehicle: Klucel (hydroxypropylcellulose) (HPC)
[16] = dose: 50.0 mg/kg/injection, schedule: Q01DX009 (ip), vehicle: saline with Tween-80
[17] = dose: 200.0 mg/kg/injection, schedule: Q01DX001 (ip), vehicle: other
[18] = dose: 400.0 mg/kg/injection, schedule: Q01DX001 (ip), vehicle: other
[19] = dose: 50.0 mg/kg/injection, schedule: Q04DX003 (ip), vehicle: Klucel (hydroxypropylcellulose) (HPC)

Measured: T/C

ClC1=C(Cl)C2(Cl)C3C4CC(CC4Cl)C3C1(Cl)C2(Cl)Cl (centres undefined)
inactive: dose: 75.0 mg/kg/injection, schedule: Q01DX001 (ip), vehicle: steriod suspending solution 93 % of control | dose: 150.0 mg/kg/injection, schedule: Q01DX001 (ip), vehicle: steriod suspending solution 90 % of control | dose: 300.0 mg/kg/injection, schedule: Q01DX001 (ip), vehicle: steriod suspending solution 98 % of control

CNC(=S)N/N=C/C(CO)=N\NC(=S)NC
inactive: dose: 50.0 mg/kg/injection, schedule: Q01DX001 (ip), vehicle: carboxymethylcellulose (CMC) 101 % of control | dose: 100.0 mg/kg/injection, schedule: Q01DX001 (ip), vehicle: carboxymethylcellulose (CMC) 103 % of control | dose: 200.0 mg/kg/injection, schedule: Q01DX001 (ip), vehicle: carboxymethylcellulose (CMC) 112 % of control | dose: 400.0 mg/kg/injection, schedule: Q01DX001 (ip), vehicle: carboxymethylcellulose (CMC) 97 % of control

C1CC2C(CCCC23OCCO3)C2(C1)OCCO2 (centres undefined)
inactive: [1] 115 % of control and 111 % of control | [2] 94 % of control and 99 % of control | dose: 200.0 mg/kg/injection, schedule: Q01DX009 (ip), vehicle: saline 122 % of control and 107 % of control | [3] 112 % of control and 101 % of control | dose: 400.0 mg/kg/injection, schedule: Q01DX009 (ip), vehicle: saline 108 % of control and 98 % of control | [4] 109 % of control and 97 % of control

O=[N+]([O-])c1nc2ccccc2[nH]1
inactive: [5] 98 % of control

S=C([S-])N1CCCCC1.S=C([S-])N1CCCCC1.[Zn]
inactive: dose: 18.8 mg/kg/injection, schedule: Q04DX003 (ip), vehicle: saline 92 % of control | dose: 37.5 mg/kg/injection, schedule: Q04DX003 (ip), vehicle: saline 92 % of control | dose: 75.0 mg/kg/injection, schedule: Q01DX001 (ip), vehicle: saline 88 % of control | dose: 75.0 mg/kg/injection, schedule: Q04DX003 (ip), vehicle: saline 96 % of control

Cn1c(=O)n(OS(=O)(=O)c2ccccc2)c(=O)c2ccccc21
inactive: dose: 100.0 mg/kg/injection, schedule: Q01DX009 (ip), vehicle: other 107 % of control | dose: 200.0 mg/kg/injection, schedule: Q01DX009 (ip), vehicle: other 96 % of control | dose: 400.0 mg/kg/injection, schedule: Q01DX009 (ip), vehicle: other 98 % of control

CC1CCCN(C)C1 (centres undefined)
inactive: [6] 100 % of control | [7] 100 % of control | [8] 100 % of control | [9] 93 % of control

CC(C)=Nc1cccc(B(O)O)c1
inactive: [10] 98 % of control | [11] 88 % of control | [12] 95 % of control

CC12CCC3C(CC=C4CC(O)CCC43C)C1C/C(=C\c1ccccc1)C2=O (centres undefined)
inactive: dose: 100.0 mg/kg/injection, schedule: Q01DX001 (ip), vehicle: saline with Tween-80 93 % of control | dose: 200.0 mg/kg/injection, schedule: Q01DX001 (ip), vehicle: saline with Tween-80 93 % of control | dose: 400.0 mg/kg/injection, schedule: Q01DX001 (ip), vehicle: saline with Tween-80 92 % of control

CC(O)C(O)C(=O)O (centres undefined)
inactive: dose: 25.0 mg/kg/injection, schedule: Q01DX009 (ip), vehicle: saline 95 % of control | dose: 50.0 mg/kg/injection, schedule: Q01DX009 (ip), vehicle: saline 90 % of control | [10] 96 % of control | [1] 95 % of control | [2] 108 % of control | [11] 102 % of control | [3] 101 % of control | [12] 96 % of control | [4] 94 % of control

O=[N+]([O-])c1ccccc1N1CCCCC1
inactive: [7] 97 % of control | [8] 89 % of control | [9] 109 % of control

O=C(c1ccccc1)N1CCN(C(=O)c2ccccc2)C1
inactive: [6] 91 % of control | [13] 98 % of control | [14] 104 % of control

OC1C(Br)CC(Br)C1O (centres undefined)
inactive: dose: 100.0 mg/kg/injection, schedule: Q04DX002 (ip), vehicle: saline with Tween-80 97 % of control | dose: 200.0 mg/kg/injection, schedule: Q04DX002 (ip), vehicle: saline with Tween-80 93 % of control | dose: 400.0 mg/kg/injection, schedule: Q04DX002 (ip), vehicle: saline with Tween-80 101 % of control

CCOC(=O)/C(C#N)=C/c1cccn1Cc1cc(OC)c(OC)cc1[N+](=O)[O-]
inactive: dose: 25.0 mg/kg/injection, schedule: Q04DX002 (ip), vehicle: Klucel (hydroxypropylcellulose) (HPC) 110 % of control | dose: 50.0 mg/kg/injection, schedule: Q04DX002 (ip), vehicle: Klucel (hydroxypropylcellulose) (HPC) 89 % of control | [15] 96 % of control

O=C(CC1(O)CCCCC1)Nc1ccccc1
inactive: dose: 50.0 mg/kg/injection, schedule: Q01DX001 (ip), vehicle: saline 100 % of control | [10] 97 % of control | [11] 101 % of control | [12] 97 % of control

CCOc1ccc(/C=N/Nc2c3ccccc3nc3ccccc23)cc1OCC
inactive: [10] 92 % of control | [11] 95 % of control

CCN(CC)C(=O)c1ccccc1C(=O)O
inactive: [6] 94 % of control | [13] 92 % of control | [14] 92 % of control

CC(C)(C)NC(=O)CCC1C2C=CC(C2)C1C(=O)NC(C)(C)C (centres undefined)
inactive: dose: 100.0 mg/kg/injection, schedule: Q01DX001 (ip), vehicle: Klucel (hydroxypropylcellulose) (HPC) 97 % of control | [7] 101 % of control | dose: 200.0 mg/kg/injection, schedule: Q01DX001 (ip), vehicle: Klucel (hydroxypropylcellulose) (HPC) 92 % of control | [8] 97 % of control | dose: 400.0 mg/kg/injection, schedule: Q01DX001 (ip), vehicle: Klucel (hydroxypropylcellulose) (HPC) 98 % of control | [9] 107 % of control

COC(=O)Nc1cc2c3c(c1)CCCN3CCC2
inactive: [16] 91 % of control | dose: 100.0 mg/kg/injection, schedule: Q01DX009 (ip), vehicle: saline with Tween-80 96 % of control

CCC(C1=CCCCC1)c1nc2c([nH]1)c(=O)n(C)c(=O)n2C (centres undefined)
inactive: dose: 50.0 mg/kg/injection, schedule: Q01DX001 (ip), vehicle: other 101 % of control | [5] 90 % of control | [17] 90 % of control | [18] 97 % of control

CC(=O)C1CCC2C3CCC4=CC(=O)CCC4(C)C3(C)C(=O)CC12C (centres undefined)
inactive: dose: 50.0 mg/kg/injection, schedule: Q01DX001 (sc), vehicle: steriod suspending solution 102 % of control and 105 % of control | dose: 100.0 mg/kg/injection, schedule: Q01DX001 (sc), vehicle: steriod suspending solution 102 % of control and 107 % of control | dose: 200.0 mg/kg/injection, schedule: Q01DX001 (sc), vehicle: steriod suspending solution 105 % of control | dose: 400.0 mg/kg/injection, schedule: Q01DX001 (sc), vehicle: steriod suspending solution 105 % of control and 96 % of control

CP1CCC(O)(c2ccccc2)CC1 (centres undefined)
inactive: [15] 88 % of control | dose: 200.0 mg/kg/injection, schedule: Q04DX002 (ip), vehicle: Klucel (hydroxypropylcellulose) (HPC) 103 % of control | dose: 400.0 mg/kg/injection, schedule: Q04DX002 (ip), vehicle: Klucel (hydroxypropylcellulose) (HPC) 95 % of control

Clc1ccc(Cl)c2c(Br)cncc12
inactive: [5] 98 % of control | [17] 98 % of control | [18] 93 % of control

O=C(NCCCl)Nc1ccc2c3c1CCCC3CC2 (centres undefined)
inactive: [19] 106 % of control | [7] 107 % of control | [8] 102 % of control

CN(C)/N=C1\C(=O)Nc2ccccc21
inactive: dose: 25.0 mg/kg/injection, schedule: Q01DX009 (ip), vehicle: Klucel (hydroxypropylcellulose) (HPC) 101 % of control | dose: 50.0 mg/kg/injection, schedule: Q01DX009 (ip), vehicle: Klucel (hydroxypropylcellulose) (HPC) 117 % of control | [19] 104 % of control | [6] 102 % of control and 103 % of control | [7] 106 % of control | [8] 97 % of control | [9] 103 % of control

CC(C)CCOc1ccc(N)c([N+](=O)[O-])c1
inactive: dose: 6.25 mg/kg/injection, schedule: Q01DX009 (ip), vehicle: saline with Tween-80 105 % of control | dose: 12.5 mg/kg/injection, schedule: Q01DX009 (ip), vehicle: saline with Tween-80 100 % of control | dose: 25.0 mg/kg/injection, schedule: Q01DX009 (ip), vehicle: saline with Tween-80 103 % of control | [16] 94 % of control | dose: 100.0 mg/kg/injection, schedule: Q04DX003 (ip), vehicle: saline with Tween-80 97 % of control | dose: 200.0 mg/kg/injection, schedule: Q04DX003 (ip), vehicle: saline with Tween-80 100 % of control
